Reference: patent US10336730B2, “Substituted glycine derived FXIA inhibitors” (BRISTOL-MYERS SQUIBB COMPANY, priority 2015, dated 2019)

Molecular target: T1, purified human Factor XIa (Homo sapiens, UniProt P03951)
T1 construct: purchased Haematologic Technologies
Assay: Factor XIa enzyme inhibition assay (chromogenic substrate S-2366), Ki
Format: biochemical
Details: substrate S-2366, pH 7.4
Method: The effectiveness of compounds of the present invention as inhibitors of the coagulation Factors XIa, VIIa, IXa, Xa, XIIa, plasma kallikrein, thrombin, chemytrypsin or trypsin can be determined using a relevant purified serine protease, respectively, and an appropriate synthetic substrate. The rate of hydrolysis of the chromogenic or fluorogenic substrate by the relevant serine protease was measured both in the absence and presence of compounds of the present invention. […] A decrease in the rate of absorbance or fluorescence change in the presence of inhibitor is indicative of enzyme inhibition. Such methods are known to one skilled in the art. The results of this assay are expressed as the inhibitory constant, Ki.
Factor XIa determinations were made in 50 mM HEPES buffer at pH 7.4 containing 145 mM NaCl, 5 mM KCl, and 0.1% PEG 8000 (polyethylene glycol; JT Baker or Fisher Scientific). Determinations were made using purified human Factor XIa at a final concentration of […] (Haematologic Technologies) and the synthetic substrate S-2366 (pyroGlu-Pro-Arg-pNA; CHROMOGENIX® or AnaSpec) at a concentration of 0.0002-0.001 M.
Values of Ki were determined by allowing the protease to react with the substrate in the presence of the inhibitor. Reactions were allowed to go for periods of 20-180 minutes (depending on the protease) and the velocities (rate of absorbance or fluorescence change versus time) were measured. The following relationships were used to calculate Ki values: (Vmax*S)/(Km+S) (vo−vs)/vs=I/(Ki*(1+S/Km)) for a competitive inhibitor with one binding site; or vs/vo=A+(B−A)/(1+(IC50/(I)^n)); and Ki=IC50/(1+S/Km) for a competitive inhibitor where: […]

T1 sequence (P03951 388-625 limits assumed): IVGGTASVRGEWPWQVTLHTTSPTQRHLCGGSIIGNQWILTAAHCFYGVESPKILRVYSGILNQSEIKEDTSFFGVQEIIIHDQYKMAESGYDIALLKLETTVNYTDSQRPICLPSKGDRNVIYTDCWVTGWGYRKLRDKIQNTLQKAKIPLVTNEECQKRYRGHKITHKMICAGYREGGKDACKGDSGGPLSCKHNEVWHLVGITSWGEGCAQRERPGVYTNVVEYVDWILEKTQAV
T1 sequence (P03951 19-387 partner limits assumed): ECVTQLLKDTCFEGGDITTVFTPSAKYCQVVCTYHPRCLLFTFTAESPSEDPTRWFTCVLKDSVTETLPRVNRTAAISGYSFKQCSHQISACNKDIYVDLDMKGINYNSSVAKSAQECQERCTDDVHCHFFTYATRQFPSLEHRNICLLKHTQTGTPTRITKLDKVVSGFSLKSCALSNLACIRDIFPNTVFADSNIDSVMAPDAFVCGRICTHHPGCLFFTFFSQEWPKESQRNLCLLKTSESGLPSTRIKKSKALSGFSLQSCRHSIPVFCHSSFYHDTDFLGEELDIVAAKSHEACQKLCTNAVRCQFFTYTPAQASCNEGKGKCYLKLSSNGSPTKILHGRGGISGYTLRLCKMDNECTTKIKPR

| Ki [nM] | Structure (SMILES) |
| --- | --- |
| 7810 | O=C1OCC[C@@H]1NC(=O)[C@H](Cc1ccccc1)n1cnc(-c2cc(Cl)ccc2-n2cc(Cl)nn2)cc1=O [Example 101, (S)-2-(4-(5-chloro-2-(4-chloro-1H-1,2,3-triazol-1-yl)phenyl)-6-oxopyrimidin-1(6H)-yl)-N-((S)-2-oxotetrahydrofuran-3-yl)-3-phenylpropanamide] |
| 3780 | CC(C)c1cc(CNC(=O)[C@H](Cc2ccccc2)n2cnc(-c3cc(Cl)ccc3-n3cc(Cl)nn3)cc2=O)on1 [Example 80, (S)-2-(4-(5-chloro-2-(4-chloro-1H-1,2,3-triazol-1-yl)phenyl)-6-oxopyrimidin-1(6H)-yl)-N-((3-isopropylisoxazol-5-yl)methyl)-3-phenylpropanamide] |
| 126 | N#Cc1ccc(NC(=O)[C@H](Cc2ccccc2)n2cnc(-c3cc(Cl)ccc3-n3cc(Cl)nn3)cc2=O)cc1F [Example 92, (S)-2-(4-(5-chloro-2-(4-chloro-1H-1,2,3-triazol-1-yl)phenyl)-6-oxopyrimidin-1(6H)-yl)-N-(4-cyano-3-fluorophenyl)-3-phenylpropanamide] |
| 4440 | O=C([C@H](Cc1ccccc1)n1cnc(-c2cc(Cl)ccc2-n2cc(Cl)nn2)cc1=O)N1CCC(c2ccccc2)CC1 [Example 73, (S)-6-(5-chloro-2-(4-chloro-1H-1,2,3-triazol-1-yl)phenyl)-3-(1-oxo-3-phenyl-1-(4-phenylpiperidin-1-yl)propan-2-yl)pyrimidin-4(3H)-one] |
| 172 | COC(=O)c1cc(NC(=O)[C@H](Cc2ccccc2)n2cnc(-c3cc(Cl)ccc3-n3cc(Cl)nn3)cc2=O)cn1C [Example 40, methyl (S)-4-(2-(4-(5-chloro-2-(4-chloro-1H-1,2,3-triazol-1-yl)phenyl)-6-oxopyrimidin-1(6H)-yl)-3-phenylpropanamido)-1-methyl-1H-pyrrole-2-carboxylate] |
| 7370 | O=C([C@H](Cc1ccccc1)n1cnc(-c2cc(Cl)ccc2-n2cc(Cl)nn2)cc1=O)N1CCn2ncnc2C1 [Example 99, (S)-6-(5-chloro-2-(4-chloro-1H-1,2,3-triazol-1-yl)phenyl)-3-(1-(5,6-dihydro-[1,2,4]triazolo[1,5-a]pyrazin-7(8H)-yl)-1-oxo-3-phenylpropan-2-yl)pyrimidin-4(3H)-one] |
| 231 | O=C(NC1CCCCC1)[C@H](Cc1ccccc1)n1cnc(-c2cc(Cl)ccc2-n2cc(Cl)nn2)cc1=O [Example 104, (S)-2-(4-(5-chloro-2-(4-chloro-1H-1,2,3-triazol-1-yl)phenyl)-6-oxopyrimidin-1(6H)-yl)-N-cyclohexyl-3-phenylpropanamide] |
| 4940 | O=C1CCN(C(=O)[C@H](Cc2ccccc2)n2cnc(-c3cc(Cl)ccc3-n3cc(Cl)nn3)cc2=O)CCN1 [Example 55, (S)-1-(2-(4-(5-chloro-2-(4-chloro-1H-1,2,3-triazol-1-yl)phenyl)-6-oxopyrimidin-1(6H)-yl)-3-phenylpropanoyl)-1,4-diazepan-5-one] |
| 5610 | O=C([C@H](Cc1ccccc1)n1cnc(-c2cc(Cl)ccc2-n2cc(Cl)nn2)cc1=O)N1CCC1 [Example 88, (S)-3-(1-(azetidin-1-yl)-1-oxo-3-phenylpropan-2-yl)-6-(5-chloro-2-(4-chloro-1H-1,2,3-triazol-1-yl)phenyl)pyrimidin-4(3H)-one] |
| 4550 | CC1=NN=C(NC(=O)[C@H](Cc2ccccc2)n2cnc(-c3cc(Cl)ccc3-n3cc(Cl)nn3)cc2=O)SC1 [Example 107, (S)-2-(4-(5-chloro-2-(4-chloro-1H-1,2,3-triazol-1-yl)phenyl)-6-oxopyrimidin-1(6H)-yl)-N-(5-methyl-6H-1,3,4-thiadiazin-2-yl)-3-phenylpropanamide] |
| 1660 | CCOC(=O)Cn1ccc(NC(=O)[C@H](Cc2ccccc2)n2cnc(-c3cc(Cl)ccc3-n3cc(Cl)nn3)cc2=O)n1 [Example 34, ethyl (S)-2-(3-(2-(4-(5-chloro-2-(4-chloro-1H-1,2,3-triazol-1-yl)phenyl)-6-oxopyrimidin-1(6H)-yl)-3-phenylpropanamido)-1H-pyrazol-1-yl)acetate] |
| 408 | O=C(Nc1cnn(-c2ccc(Cl)cc2)c1)[C@H](Cc1ccccc1)n1cnc(-c2cc(Cl)ccc2-n2cc(Cl)nn2)cc1=O [Example 119, (S)-2-(4-(5-chloro-2-(4-chloro-1H-1,2,3-triazol-1-yl)phenyl)-6-oxopyrimidin-1(6H)-yl)-N-(1-(4-chlorophenyl)-1H-pyrazol-4-yl)-3-phenylpropanamide] |
| 10.3 | O=C(Nc1ccc2ncncc2c1)[C@H](Cc1ccccc1)n1cnc(-c2cc(Cl)ccc2-n2cc(Cl)nn2)cc1=O [Example 31, (S)-2-(4-(5-chloro-2-(4-chloro-1H-1,2.3-triazol-1-yl)phenyl)-6-oxopyrimidin-1(6H)-yl)-3-phenyl-N-(quinazolin-6-yl)propanamide] |
| 83.7 | COC(=O)c1ccc(NC(=O)[C@H](Cc2ccccc2)n2cnc(-c3cc(Cl)ccc3-n3cc(Cl)nn3)cc2=O)cc1 [Example 22, methyl (S)-4-(2-(4-(5-chloro-2-(4-chloro-1H-1,2,3-triazol-1-yl)phenyl)-6-oxopyrimidin-1(6H)-yl)-3-phenylpropanamido)benzoate] |
| 27.8 | O=C1NCCc2cc(NC(=O)[C@H](Cc3ccccc3)n3cnc(-c4cc(Cl)ccc4-n4cc(Cl)nn4)cc3=O)ccc21 [Example 97, (S)-2-(4-(5-chloro-2-(4-chloro-1H-1,2,3-triazol-1-yl)phenyl)-6-oxopyrimidin-1(6H)-yl)-N-(1-oxo-1,2,3,4-tetrahydroisoquinolin-6-yl)-3-phenylpropanamide] |
| 7370 | O=C([C@H](Cc1ccccc1)n1cnc(-c2cc(Cl)ccc2-n2cc(Cl)nn2)cc1=O)N1CCC(CO)CC1 [Example 56, (S)-6-(5-chloro-2-(4-chloro-1H-1,2,3-triazol-1-yl)phenyl)-3-(1-(4-(hydroxymethyl)piperidin-1-yl)-1-oxo-3-phenylpropan-2-yl)pyrimidin-4(3H)-one] |
| 25.2 | NC(=O)c1cccc(C[C@@H](C(=O)Nc2ccc(C(=O)O)cc2)N2CCC(c3cc(Cl)ccc3-n3ccnn3)=CC2=O)c1 [Compound 139, (S)-4-(3-(3-carbamoylphenyl)-2-(4-(5-chloro-2-(1H-1,2,3-triazol-1-yl)phenyl)-6-oxo-3,6-dihydropyridin-1(2H)-yl)propanamido)benzoic Acid] |
| 7370 | CN1CCC(CNC(=O)[C@H](Cc2ccccc2)n2cnc(-c3cc(Cl)ccc3-n3cc(Cl)nn3)cc2=O)C1 (mixture of isomers) [Example 48, (2S)-2-(4-(5-chloro-2-(4-chloro-1H-1,2,3-triazol-1-yl)phenyl)-6-oxopyrimidin-1(6H)-yl)-N-((1-methylpyrrolidin-3-yl)methyl)-3-phenylpropanamide] |
| 2850 | O=C(NCc1n[nH]c2c1CCCC2)[C@H](Cc1ccccc1)n1cnc(-c2cc(Cl)ccc2-n2cc(Cl)nn2)cc1=O [Example 91, (S)-2-(4-(5-chloro-2-(4-chloro-1H-1,2,3-triazol-1-yl)phenyl)-6-oxopyrimidin-1(6H)-yl)-3-phenyl-N-((4,5,6,7-tetrahydro-1H-indazol-3-yl)methyl)propanamide] |
| 549 | O=C(Nc1cnn(-c2ccccc2)c1)[C@H](Cc1ccccc1)n1cnc(-c2cc(Cl)ccc2-n2cc(Cl)nn2)cc1=O [Example 120, (S)-2-(4-(5-chloro-2-(4-chloro-1H-1,2,3-triazol-1-yl)phenyl)-6-oxopyrimidin-1(6H)-yl)-3-phenyl-N-(1-phenyl-1H-pyrazol-4-yl)propanamide] |
| 826 | O=C(NC1COc2ccccc21)[C@H](Cc1ccccc1)n1cnc(-c2cc(Cl)ccc2-n2cc(Cl)nn2)cc1=O (stereo partly drawn) [Example 128, (2S)-2-(4-(5-chloro-2-(4-chloro-1H-1,2,3-triazol-1-yl)phenyl)-6-oxopyrimidin-1(6H)-yl)-N-(2,3-dihydrobenzofuran-3-yl)-3-phenylpropanamide] |
| 7500 | CN(C)C1CCN(C(=O)[C@H](Cc2ccccc2)n2cnc(-c3cc(Cl)ccc3-n3cc(Cl)nn3)cc2=O)CC1 [Example 63, (S)-6-(5-chloro-2-(4-chloro-1H-1,2,3-triazol-1-yl)phenyl)-3-(1-(4-(dimethylamino)piperidin-1-yl)-1-oxo-3-phenylpropan-2-yl)pyrimidin-4(3H)-one] |
| 8.3 | O=C(Nc1ccc2[nH]cnc2c1)[C@H](Cc1ccccc1)n1cnc(-c2cc(Cl)ccc2-n2cc(Cl)nn2)cc1=O [Example 46, (S)-N-(1H-benzo[d]imidazol-5-yl)-2-(4-(5-chloro-2-(4-chloro-1H-1,2,3-triazol-1-yl)phenyl)-6-oxopyrimidin-1(6H)-yl)-3-phenylpropanamide] |
| 931 | O=C(NCc1ccccn1)[C@H](Cc1ccccc1)n1cnc(-c2cc(Cl)ccc2-n2cc(Cl)nn2)cc1=O [Example 70, (S)-2-(4-(5-chloro-2-(4-chloro-1H-1,2,3-triazol-1-yl)phenyl)-6-oxopyrimidin-1(6H)-yl)-3-phenyl-N-(pyridin-2-ylmethyl)propanamide] |
| 5500 | O=C(NCCO)[C@H](Cc1ccccc1)n1cnc(-c2cc(Cl)ccc2-n2cc(Cl)nn2)cc1=O [Example 86, (S)-2-(4-(5-chloro-2-(4-chloro-1H-1,2,3-triazol-1-yl)phenyl)-6-oxopyrimidin-1(6H)-yl)-N-(2-hydroxyethyl)-3-phenylpropanamide] |
